± gives the standard deviation of the averaged measurements.
What was measured:
Settings in all cases: 72 h
HepG2 [1] = assay: cell viability relative to DMSO; higher = less toxic
U2OS [2] = assay: as above
Vero E6 [3] = assay: as above
Caco-2 [4] = assay: as above
Calu-3 [5] = assay: as above
HepG2 [6] = assay: drug sensitivity score (DSS) for viability; higher = more toxic; extreme values may be limits of the assay
U2OS [7] = assay: as above
Vero E6 [8] = assay: as above
Caco-2 [9] = assay: as above
Calu-3 [10] = assay: as above
HepG2 [11] = assay: relative viability EC50 (midpoint between 100% and the lowest measured viability); higher = less toxic
U2OS [12] = assay: as above
Vero E6 [13] = assay: as above
Caco-2 [14] = assay: as above
Calu-3 [15] = assay: as above

| SMILES | cell viability (HepG2 [1]; 1 nM) | cell viability (HepG2 [1]; 10 nM) | cell viability (HepG2 [1]; 100 nM) | cell viability (HepG2 [1]; 1000 nM) | cell viability (HepG2 [1]; 10000 nM) | cell viability (U2OS [2]; 1 nM) | cell viability (U2OS [2]; 10 nM) | cell viability (U2OS [2]; 100 nM) | cell viability (U2OS [2]; 1000 nM) | cell viability (U2OS [2]; 10000 nM) | cell viability (Vero E6 [3]; 1 nM) | cell viability (Vero E6 [3]; 10 nM) | cell viability (Vero E6 [3]; 100 nM) | cell viability (Vero E6 [3]; 1000 nM) | cell viability (Vero E6 [3]; 10000 nM) | cell viability (Caco-2 [4]; 1 nM) | cell viability (Caco-2 [4]; 10 nM) | cell viability (Caco-2 [4]; 100 nM) | cell viability (Caco-2 [4]; 1000 nM) | cell viability (Caco-2 [4]; 10000 nM) | cell viability (Calu-3 [5]; 1 nM) | cell viability (Calu-3 [5]; 10 nM) | cell viability (Calu-3 [5]; 100 nM) | cell viability (Calu-3 [5]; 1000 nM) | cell viability (Calu-3 [5]; 10000 nM) | drug sensitivity score (HepG2 [6]) | drug sensitivity score (U2OS [7]) | drug sensitivity score (Vero E6 [8]) | drug sensitivity score (Caco-2 [9]) | drug sensitivity score (Calu-3 [10]) | relative viability EC50 (HepG2 [11]) | relative viability EC50 (U2OS [12]) | relative viability EC50 (Vero E6 [13]) | relative viability EC50 (Caco-2 [14]) | relative viability EC50 (Calu-3 [15]) |
| --- | --- | --- | --- | --- | --- | --- | --- | --- | --- | --- | --- | --- | --- | --- | --- | --- | --- | --- | --- | --- | --- | --- | --- | --- | --- | --- | --- | --- | --- | --- | --- | --- | --- | --- | --- |
| CC(=O)NCCCOc1ccc(C(=O)N2CCC(N3C(=O)CCc4ccccc43)CC2)cc1 | 113% | 92.3% | 116% | 112% | 107% | 98% | 100% | 97.3% | 101% | 95.5% | 105% | 92.6% | 95.6% | 104% | 106% | 104% | 90.1% | 76% | 104% | 88.6% | 81% | 84.4% | 77.8% | 86.9% | 79% | 0 | 0 | 0 | 0 | 0 | > 10 µM | > 10 µM | > 10 µM | > 10 µM | > 10 µM |
| CC[C@@H](C)N(C)C(=O)c1cc2ccccc2c(-c2ccccc2Cl)n1 | 92.5% | 113% | 89.6% | 100% | 107% | 102% | 98.3% | 102% | 97.3% | 103% | 99.4% | 105% | 100% | 102% | 107% | 106% | 104% | 95.6% | 96.4% | 98.6% | 108% | 106% | 93.8% | 95.8% | 99.2% | 0 | 0 | 0 | 0 | 0 | > 10 µM | > 10 µM | > 10 µM | > 10 µM | > 10 µM |
| CNCCn1c(=O)c2cc(OC)c(OC)cc2c2cnc3cc4c(cc3c21)OCO4 | 112% | 92.1% | 56.8% | 18.6% | -0.3% | 96.1% | 99.5% | 97.3% | 78.9% | 25.9% | 97.6% | 94.7% | 97.9% | 58.6% | 24.6% | 95.5% | 95.9% | 89.4% | 58% | 9% | 95.8% | 92.9% | 84.8% | 46.3% | 30.2% | 20.8 | 7.3 | 9.1 | 10 | 11.8 | 0.149 µM | 1.44 µM | 0.891 µM | 1.04 µM | 0.313 µM |
| COc1ccc(C2(O)CCC(N3CC[C@@H](NC(=O)CNC(=O)c4cccc(C(F)(F)F)c4)C3)CC2)cn1 (stereo not given in full) | 94.8 ± 12% | 97.7 ± 1.6% | 101 ± 8.1% | 94.8 ± 8.5% | 102 ± 8.6% | 99.7 ± 2% | 98.5 ± 1.3% | 98.6 ± 2.7% | 99.4 ± 0.14% | 100 ± 4.2% | 97.7 ± 1.4% | 97.8 ± 5.8% | 97.7 ± 1.3% | 95.8 ± 1.9% | 97.6 ± 3.8% | 100 ± 2.3% | 95.3 ± 5.2% | 95.3 ± 2.9% | 100 ± 2.4% | 94.8 ± 5.4% | 102 ± 13% | 92.8 ± 6.5% | 96.3 ± 4.9% | 97.7 ± 4.2% | 95.2 ± 9.2% | 0 | 0 | 0 | 0 | 0 | > 10 µM | > 10 µM | > 10 µM | > 10 µM | > 10 µM |
| C[S+]([O-])c1ccc(-c2nc(-c3ccc(F)cc3)c(-c3ccncc3)[nH]2)cc1 (stereo not given) | 104% | 105% | 96.1% | 107% | 91.8% | 104% | 102% | 102% | 95.5% | 96.9% | 99% | 112% | 97.2% | 110% | 92.3% | 111% | 97% | 103% | 95.1% | 84% | 106% | 101% | 98.2% | 98.4% | 101% | 0 | 0 | 0 | 0.8 | 0 | > 10 µM | > 10 µM | > 10 µM | > 10 µM | > 10 µM |
| Cc1[nH]c2ccc(Cl)cc2c1C1=CCNCC1 | 93.2% | 94.7% | 97.1% | 95.3% | 89.9% | 96.5% | 103% | 95.4% | 96.5% | 88.9% | 98.1% | 96.4% | 99.6% | 96% | 91.7% | 95.9% | 102% | 99.4% | 97% | 81.7% | 109% | 106% | 99.8% | 103% | 91.5% | 0 | 0 | 0 | 0.8 | 0 | > 10 µM | > 10 µM | > 10 µM | > 10 µM | > 10 µM |
| Cc1c(C(=O)NC2CCCCC2)sc2nc3ccc(N)cc3n12 | 94.1% | 101% | 92.8% | 104% | 107% | 102% | 94.6% | 96.4% | 98.1% | 102% | 99.4% | 103% | 96.9% | 103% | 107% | 105% | 97% | 101% | 103% | 104% | 93.7% | 109% | 83.3% | 97.4% | 103% | 0 | 0 | 0 | 0 | 0 | > 10 µM | > 10 µM | > 10 µM | > 10 µM | > 10 µM |
| Cc1cc(C)c2c(N)c(C(=O)NCc3ccc(Cl)cc3)sc2n1 | 102% | 105% | 101% | 91.6% | 98.5% | 98.9% | 103% | 99.7% | 102% | 105% | 101% | 91.8% | 108% | 90.4% | 105% | 95.7% | 91.5% | 107% | 89.5% | 108% | 101% | 92.2% | 97% | 108% | 96.3% | 0 | 0 | 0 | 0 | 0 | > 10 µM | > 10 µM | > 10 µM | > 10 µM | > 10 µM |
| Cc1ccc(C(=O)N(CCCN)[C@@H](c2oc3cc(Cl)ccc3c(=O)c2Cc2ccccc2)C(C)C)cc1 | 102% | 45.1% | 36.9% | 34.4% | 0.1% | 100% | 74.6% | 52.7% | 52% | 8.2% | 99.4% | 87.5% | 44.7% | 42% | -0.2% | 98.9% | 78.2% | 62% | 66.1% | 5.6% | 98.2% | 91.5% | 89.1% | 90% | 0.4% | 27.1 | 18.1 | 19.7 | 14.3 | 7.2 | 0.0342 µM | 0.165 µM | 0.169 µM | 0.469 µM | 2.33 µM |
| Cc1cnc(Nc2ccc(N3CCN(C)CC3)cc2)nc1Nc1cccc(S(=O)(=O)NC(C)(C)C)c1 | 96.2% | 105% | 97.2% | 57.9% | 28.9% | 92.1% | 93.7% | 100% | 75.3% | 0.5% | 93% | 105% | 94.9% | 90.9% | 0.2% | 96.3% | 101% | 98.4% | 64.3% | 9.6% | 93% | 95.1% | 92.6% | 86.1% | 13.8% | 9 | 9.3 | 7 | 9.7 | 7.1 | 0.8 µM | 1.55 µM | 2.41 µM | 1.2 µM | 1.92 µM |
| CC(C)Cc1ccc([C@@H](C)C(=O)NCCO)cc1 (racemic) [mabuprofen] | 92.7% | 105% | 90.8% | 95.3% | 96.4% | 105% | 98.9% | 103% | 100% | 100% | 102% | 100% | 101% | 97.9% | 94.7% | 102% | 96.4% | 104% | 94% | 96.1% | 106% | 103% | 105% | 99.4% | 117% | 0 | 0 | 0 | 0 | 0 | > 10 µM | > 10 µM | > 10 µM | > 10 µM | > 10 µM |

Reference: the supplement of paper PMC13380429
